In article PMC8467532, “DYRK1A Kinase Inhibitors Promote β-Cell Survival and Insulin Homeostasis” (Cells, 2021):
Read-outs that look alike come from different tables or passages of the source.

Key:
DYRK1A [1] = molecular target: T1, DYRK1A (Homo sapiens, UniProt Q13627); test: Cook activity assay (ATP regenerative NADH consuming DYRK1A activity assay); type: biochemical; conditions: Cook assay
T1 construct: kinase domain of DYRK1A (126–490) was cloned into pET24a with C-terminal His-tag; His-tag (C); made in house; host or cells: E. coli BL21 (DE3) RIL

DYRK1A kinase domain = molecular target: T2, DYRK1A kinase domain (Homo sapiens, UniProt Q13627); test: MST direct binding assay; conditions: MST direct binding, 20 nM fluorescent-labelled DYRK1A kinase domain
T2 construct: kinase domain of DYRK1A (126–490) was cloned into pET24a with C-terminal His-tag; made in house; host or cells: E. coli BL21 (DE3) RIL

INS-1E and MIN6 cells [2] = test: Ki67 proliferation analysis; type: cell-based, rat, mouse
DYRK1A [3] = molecular target: T1, DYRK1A; conditions: cited from earlier work
NFAT = NFAT luciferase reporter assay in HEK 293 NFAT cell line expressing DYRK1A; type: cell-based; conditions: various concentrations, 30 min, then ionomycin/PMA 5 h
Method: The Renilla luciferase reporter assay was performed in HEK 293 NFAT cell line, constitutively expressing DYRK1A, NFAT and Renilla luciferase under the control of an NFAT-RE promoter. The cells were seeded at 10,000 per well in 96-well white plates (Cellstar, Greiner; Burlington, MA, United States). The following day cells were incubated with the indicated concentration of inhibitor for 30 min, then the medium was changed, and cells were stimulated with 1 μM ionomycin and 10 nM PMA for 5 h. Next, the cell lysate was harvested to measure luciferase activity with Renilla-Glo Luciferase Assay System (Promega, Wisconsin, United States). All experiments were carried out in triplicates.

mTOR = conditions: cited from earlier work
[4] = system: adult human pancreatic beta cells; design: method as in PMID 34335466; conditions: cited from earlier work
INS-1E cells = test: MTT cytotoxicity and cell survival assay, INS-1E; type: cell-based, rat; conditions: 24 h, 0 to 100 μM
[5] = system: hiPSC-derived pancreatic organoids; test: Insulin secretion assay in hiPSC-derived β-cell organoids (ELISA); type: cell-based, human; design: key to insulin secretion (ELISA): ↑: moderate; ↑↑: most potent
Method: Differentiation of hiPSC into iPSC-derived β-cell islets was carried out following the protocol established by Pellegrini et al. for pluripotent stem cells with slight modifications. A day before differentiation, 800,000 cells were seeded on coated with Geltrex (Gibco) 12 wells plate in Essential 8 medium (Gibco) with Y-27632 10 µM (Abcam). The following culture media were used for differentiation:
M1 medium: MCDB131 (Gibco) + 8 mM D-(þ)-Glucose (Sigma) + 1.23 g/L NaHCO3 (Sigma) + 2% BSA (Sigma) + 0.25 mM Vitamin C (Sigma) + 1% Pen/Strep (Lonza, Basel, Switzerland) + 1% L-glutamine (Lonza);
M2 medium: MCDB131 + 20 mM D-Glucose + 1.754 g/L NaHCO3 + 2% BSA + 0.25 mM Vitamin C + Heparin 10mg/mL (Sigma) + 1% Pen/Strep + 1% L-glutamine. All media were filter-sterilized through a 0.22 µm bottle top filter (Corning, New York, NY, USA). For sequential culture medium changes, small molecules and growth factors were added to the base media immediately before daily exchange. Media switches were as follows: days 0–3: STEMdiff™ Definitive Endoderm Kit ([…], Vancouver, Canada) used following manufacturer instructions; days 4–6: M1 medium + 50 ng/mL KGF (Peprotech, London, UK) + 1:50,000 ITS-X (Invitrogen, Carlsbad, CA, USA); days 7–8: M1 medium + 50 ng/mL KGF + 0.25 µM Sant1 (Sigma) + […] Retinoic acid (RA) (Sigma) + 500 nM PdBU (Millipore, Berlington, MA, United States) + 1:200 ITS-X + 200 nM LDN193189 (only Day 7) (Sigma); days 9–13: M1 medium + 50 ng/mL KGF + 0.25 µM Sant1 + 100 nM RA + 1:200 ITS-X; days 14–18: M2 medium + 0.25 µM Sant1 + 100 nM RA + 1 µM XXI (Millipore) + 10 µM Alk5i II (Selleckchem, Munich, Germany) + 1 µM L-3,30,5-Triiodothyronine (T3) (Sigma) + 20 ng/mL Betacellulin (R&D, Minneapolis, MN, USA) + 1:200 ITS-X.
(§1) The Insulin ELISA (Ultra Sensitive) was used to quantify insulin levels in control and treated organoids and isolated islets from the mouse pancreas (Crystal Chem, Downers Grove, IL, USA). Islets were homogenized in lysis buffer. Obtained buffer lysates and medium samples (after GSIS) were analyzed for total protein level and subsequently processed following the manufacturer’s protocol.

INS-1E and MIN6 cells [6] = test: MTT cytotoxicity and cell survival assay, β-cell lines; conditions: Table 2, Cell lines
INS-1E and MIN6 cells [7] = test: GSIS and insulin, C-peptide, glucagon staining (flow cytometry, confocal); type: cell-based, rat, mouse; design: key to insulin+ / glucagon+ / C-peptide+: ↑: moderate; ↑↑: most potent
Method: Cells were cultured in a low glucose medium (5.5 mM) for 24 h. After this medium was changed to lower glucose medium (2 mM) for 2 h and then for high glucose medium (25 mM) for 30 min, media were harvested and/or cells were used for further analysis.
(§2) The presence of insulin, glucagon, C-peptide, Ki67, and DYRK1A was assessed in MIN6 and INS-1E pancreatic cell lines. Before imaging, cells were seeded onto slides at a density of 1 × 10^5 cells and maintained at 37 °C in 95% atmospheric air and 5% CO2 in a humidified atmosphere for 24 h. After washing with fresh medium, cells were incubated with 5 µM inhibitor solution for 24 h. After this time, the solution was replaced with a culture medium for another 48 h. The cells were fixed. Then after washing and permeabilization, they were incubated with specific antibodies diluted in PBS. Next, the cells were incubated for 10 min with Hoechst33342 (Sigma-Aldrich). After incubation, at 37 °C, in the dark, the cells were washed twice with HBSS (Gibco), the slide was transferred to a microscope table, and the cells were visualized under a Zeiss LSM 880 confocal microscope (Carl Zeiss, Jena, Germany) with a 63× immersion objective. Images were analyzed by Zeiss ZEN Software.
(§3) The presence of insulin, glucagon, C-peptide, Ki67 and DYRK1A was assessed in MIN6 and INS-1E pancreatic cell lines. Before analysis, cells were seeded onto slides at a density of 1 × 10^5 cells and maintained at 37 °C in 95% atmospheric air and 5% CO2 in a humidified atmosphere for 24 h. After washing with fresh medium, cells were incubated with 5 µM inhibitor solution for 24 h. After this time, the solution was replaced with a culture medium for another 48 h. The cells were then detached from the plate using trypsin. The cells were fixed. Then after washing and permeabilization, they were incubated with specific antibodies diluted in PBS. Cells were analyzed with BDAccuri flow cytometer and calculated using FlowJo software (Ashland, Oregon-based FlowJo LLC, a subsidiary of Becton Dickinson).

DYRK1A in MIN6 cell line = test: DYRK1A expression by flow cytometry and confocal imaging; type: cell-based, mouse
Method: as §2, §3

isolated mouse islets = test: Insulin secretion assay in isolated mouse islets (ELISA, immunostaining); type: cell-based; design: key to insulin secretion (ELISA): ↑: moderate; ↑↑: most potent; conditions: Table 2, Isolated islets
Method: as §1
Mice (male, initially 12 weeks old) were sacrificed by cervical vertebral dislocation. Before starting the incision, their bodies were sprayed with 70% EtOH. A hemostatic clamp was placed on both sides of the small intestine, leaving a small pocket to absorb the collagenase solution into the intestine. Next, 3 mL of cold collagenase solution was introduced into the pancreas through the bile duct. The pancreas was removed from the body and placed in a falcon tube containing 2 mL of collagenase solution. The tube was placed in a water bath at 37 °C. It was incubated for 13 min. At the end of this time, the falcon was shaken vigorously. The collagenase was inactivated with FBS. The sample was centrifuged for 30 s (300× g). This step was repeated 3 times. HBSS was then added to the sample and centrifuged two more times at the same speed as before. After the last centrifugation, HBSS was removed and Percoll (1.045 g/mL) (Sigma-Aldrich) was added. The Percoll solution was left to sediment for 5 min. After this time, the islets were collected from the bottom of the falcon. The step was repeated 3 times. Finally, islets were cultured in RPMI-1640 (Pan Biotech) supplemented with 2 mM L-glutamine (Gibco), 10% fetal bovine serum (FBS) and 1% penicillin/streptomycin and the culture medium was changed daily.
The presence of insulin, C-peptide, glucagon, Pdx-1 and Nkx6.1 was assessed in isolated mouse islets. Islets were fixed in PFA (3.8%) for 30 min, washed with PBS and 0.15% Triton X-100 was added for 1.5 h, then washed again with PBS and samples were transferred to 1% BSA + 0.05% Triton X-100 solution for 3 h. After this time, islets were incubated with primary antibody for 12 h at 4 °C. The secondary antibody was then added for 3 h. Next, the islets were incubated for 10 min with Hoechst33342. After incubation, at 37 °C, in the dark, the samples were washed twice with HBSS, the slide was transferred to a microscope table and the cells were visualized under a Zeiss LSM 880 confocal microscope (Carl Zeiss, Jena, Germany) with a 63× immersion objective. Images were analyzed by Zeiss ZEN Software.

[8] = DYRK1A 0.5 µM, ATP 128 µM, DYRKtide 1 mM

COc1ccc(N)cc1-c1cnc(N)c(C(=O)c2cccnc2)n1 [AC22, (3-azanyl-6-(5-azanyl-2-methoxy-phenyl)pyrazin-2-yl)-pyridin-3-yl-methanone]
Ki (DYRK1A [1]; [8]): 1.6 ± 0.4 µM | Kd (DYRK1A kinase domain): 2.6 ± 0.4 µM | induction of β-cell proliferation (Ki67 labeling of insulin-labeled cells) (INS-1E and MIN6 cells [2]; 5 μM, vs untreated cells): most potent in inducing β-cell proliferation | IC50 (DYRK1A [3]; DYRK1A, Figure 1, ref Czarna et al. [44]): > 6 µM | Ki (DYRK1A [3]; Table S1, Cook assay, data previously reported, ref 1 (Czarna et al. 2018)): > 2.8 µM | NFAT-controlled luciferase activity (NFAT): induced NFAT-controlled luciferase activity in a dose-dependent manner

CN1C(=O)[C@H]2CCC[C@H]2N(C2CCCC2)c2nc(Nc3ccc(C(N)=O)cc3)ncc21 [AC23, 4-(((6aS,9aR)-10-cyclopentyl-5-methyl-6-oxo-5,6,6a,7,8,9,9a,10-octahydrocyclopenta[e]pyrimido[5,4-b][1, 4]diazepin-2-yl)amino)benzamide]
Ki (DYRK1A [1]; [8]): 1.2 ± 0.4 µM | Kd (DYRK1A kinase domain): 12.9 ± 2.6 µM | NFAT-controlled luciferase activity (NFAT): induced NFAT-controlled luciferase activity in a dose-dependent manner

C=CC(=O)Nc1ccc(C(=O)c2sc(Nc3ccc(N4CCN(C)CC4)cc3OC)nc2N)cc1 [AC25, N-(4-((4-azanyl-2-((2-methoxy-4-(4-methylpiperazin-1-yl)phenyl)amino)-1,3-thiazol-5-yl)carbonyl)phenyl)propenamide]
Ki (DYRK1A [1]; [8]): 1 ± 0.3 µM | Kd (DYRK1A kinase domain): 1.1 ± 0.6 µM | NFAT-controlled luciferase activity (NFAT): did not promote NFAT-activity

NS(=O)(=O)c1ccc(-c2cnc3[nH]cc(-c4cccnc4)c3c2)cc1 [AC12, 4-(3-(pyridin-3-yl)-1H-pyrrolo[2,3-b]pyridin-5-yl)benzenesulfonamide]
Ki (DYRK1A [1]; [8]): 0.1 ± 0.03 µM | Ki (DYRK1A [1]; phosphorylation of substrate peptide): < 0.2 µM | Kd (DYRK1A kinase domain): 0.38 ± 0.06 µM

Nc1ccc(-c2ccc3ncc4ccc(=O)n(-c5cccc(C(F)(F)F)c5)c4c3c2)cn1 [Torin2, 9-(6-Aminopyridin-3-yl)-1-(3-(trifluoromethyl)phenyl) benzo [h][1, 6] naphthyridin-2 (1 H)-one, reference compound]
potency towards mTOR compared to AC27 (mTOR): 40 times | NFAT-controlled luciferase activity (NFAT): did not promote NFAT-activity

COc1ccc2c(c1)[nH]c1c(C)nccc12 [Harmine, reference compound]
increase in proliferation [4]: 2–4% | effect on viability of INS-1E cells (INS-1E cells): did not show adverse effects | insulin release ([5]; GSIS, compared with untreated control cells): markedly increased insulin release | insulin secretion (ELISA) ([5]; Table 2, hiPSC): ↑↑ | toxicity (INS-1E and MIN6 cells [6]): no | insulin/C-peptide secretion (INS-1E and MIN6 cells [7]; GSIS, compound alone): enhanced insulin secretion and increases C-peptide levels | C-peptide+ (INS-1E and MIN6 cells [7]; Table 2, Cell lines): ↑ | glucagon+ (INS-1E and MIN6 cells [7]; Table 2, Cell lines): ↑↑ | insulin+ (INS-1E and MIN6 cells [7]; Table 2, Cell lines): ↑ | NFAT-controlled luciferase activity (NFAT): induced NFAT-controlled luciferase activity in a dose-dependent manner | DYRK1A (fluorescence-positive cells, flow cytometry) (DYRK1A in MIN6 cell line; MIN6, 24 h with inhibitor, control 74%): 27.7% | DYRK1A signal in confocal imaging (DYRK1A in MIN6 cell line; MIN6, vs untreated control): reduced | insulin secretion (ELISA) (isolated mouse islets): ↑

Cc1cccc(-c2n[nH]cc2-c2ccc3ncccc3n2)n1 [RepSox, 2-(3-(6-Methyl-2-pyridinyl)-1H-pyrazol-4-yl)-1,5-naphthyridine, reference compound]
effect on cell proliferation (INS-1E and MIN6 cells [2]; TGF-β inhibitor alone): did not affect cell proliferation

C=CC(=O)Nc1cccc(C(=O)c2sc(Nc3ccc(N4CCN(C)CC4)cc3)nc2N)c1 [AC28]
Ki (DYRK1A [1]; [8]): 3 ± 1 µM | Kd (DYRK1A kinase domain): 27 ± 17 µM | NFAT-controlled luciferase activity (NFAT): did not promote NFAT-activity
